{"source": "PubChem BioAssay (NCI)", "note": "Several values for one entry are separate records, joined by “and”; a condition that tells them apart may be missing. Equal values may be shown once.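 Interpolation was linear, between the two tested concentrations surrounding the appropriate level; five concentrations were tested over 48 hours in 96-well plates. GI50: concentration for 50% inhibition of growth. Definition used: TGI = concentration required for complete inhibition of growth.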", "data": [{"system": "MDA-MB-468 breast", "assay": "growth of human tumour cells (NCI), 48 h", "units": {"GI50": "µM"}, "values": [{"smiles": "CCCC(C)c1ccc(OCCCCCCN2CCNCC2)cc1", "note": "(centres undefined)", "GI50": 1.71, "TGI": "3.49 µM"}, {"smiles": "CCCCCCCCn1ccc2cc(NC(=O)Cn3cc(CN4CCCCCC4)nn3)ccc21", "GI50": 1.65, "TGI": "3.33 µM"}, {"smiles": "CN(c1ccc(NC(=O)Nc2c(Cl)cccc2Cl)cc1)c1ccnc(Nc2cccc(CS(C)(=O)=O)c2)n1", "GI50": 1.11, "TGI": "6.44 µM"}, {"smiles": "O=c1[nH]c2ccccc2cc1-c1nc2ccc(Cl)cc2[nH]1", "GI50": 3.26, "TGI": "> 100 µM"}, {"smiles": "CCN1C(=O)c2ccc3c4c(ccc(c24)C1=O)C(=O)N(CCCNCc1ccccc1OC)C3=O", "GI50": 0.326, "TGI": "1.3 µM"}, {"smiles": "COc1ccc2c(c1)NC1=C(C(=O)OC1)C2c1cc(OC)c(OC)c(OC)c1", "note": "(centres undefined)", "GI50": "< 0.01", "TGI": "< 0.01 µM"}, {"smiles": "CCCOC(=O)N[C@H]1CCc2c(Cl)c(OC)c(OC)c(OC)c2-c2ccc(SC)c(=O)cc21", "GI50": "< 0.01", "TGI": "16.3 µM"}, {"smiles": "CC1(C)N=C(N)N=C(N)N1c1ccc(CCC(=O)Nc2ccc(S(=O)(=O)F)cc2)c(Cl)c1", "GI50": 0.864, "TGI": "> 100 µM"}, {"smiles": "Cc1cn(-c2cc(NC(=O)c3cccc(C#Cc4cccc5[nH]nc(N)c45)c3)cc(C(F)(F)F)c2)cn1", "GI50": 17.1, "TGI": "> 100 µM"}, {"smiles": "COc1cccc2c1C(=N)c1c(O)c3c(c(O)c1C2=O)C[C@@](O)(C(C)=O)C[C@@H]3O[C@H]1C[C@H](N)[C@H](O)[C@H](C)O1", "GI50": 0.278, "TGI": "1.28 µM"}, {"smiles": "O=C(NC(=O)c1c(F)cccc1F)Nc1cccc(Oc2ncc(Cl)cn2)c1", "GI50": 7.78, "TGI": "> 100 µM"}, {"smiles": "CN(C)C/C=C/C(=O)Nc1ccc(C(=O)N[C@@]2(C)CCC[C@@H](Nc3ncc(Cl)c(-c4c[nH]c5ccccc45)n3)C2)nc1", "GI50": 0.0108, "TGI": "0.0352 µM"}, {"smiles": "Nc1n[nH]c2cccc(C#Cc3cccc(NC(=O)c4cccc(C(F)(F)F)c4)c3)c12", "GI50": 9.71, "TGI": "28.2 µM"}, {"smiles": "COc1cc(Nc2ncccc2C(=O)Nc2nc3ccc(F)cc3s2)cc(OC)c1OC", "GI50": 1.22, "TGI": "8.85 µM"}, {"smiles": "O=C(/C=C/c1ccccc1)Nc1ncc(Cc2ccccc2Cl)s1", "GI50": 0.37, "TGI": "> 71.5 µM"}, {"smiles": "O=C(Oc1ccc[nH]c1=O)c1cc([N+](=O)[O-])cc([N+](=O)[O-])c1", "GI50": "> 100", "TGI": "> 100 µM"}, {"smiles": "COC(=O)c1ccc2[nH]c(O)c(C(=Nc3ccc(N(C)C(=O)CN4CCN(C)CC4)cc3)c3ccc4c(c3)OCO4)c2c1", "GI50": 0.84, "TGI": "2.38 µM"}, {"smiles": "Nc1ncc(-c2cnn(C3CCNCC3)c2)cc1-c1nc2cc(Cl)ccc2o1", "GI50": 1.65, "TGI": "3.29 µM"}, {"smiles": "C=CC(=O)N1CCC(Oc2cc3c(Nc4ccc(Cl)c(Cl)c4F)ncnc3cc2OC)CC1", "GI50": "< 0.001", "TGI": "< 0.01 µM and 0.0199 µM"}, {"smiles": "CCOc1cccc(/C=N/NC(=O)c2cccc(Nc3ccnc(C(F)(F)F)c3)c2)c1O", "GI50": 0.327, "TGI": "> 100 µM"}, {"smiles": "CC/C=C\\C[C@H]1CC=C2C(=O)C=C[C@@H]2CC=CCCCC(=O)O[C@@H](CCCCC)CC=C2C(=O)C=C[C@@H]2CC=CCCCC(=O)O[C@@H](CCCCC)CC=C2C(=O)C=C[C@@H]2CC=CCCCC(=O)O[C@@H](CCCCC)CC=C2C(=O)C=C[C@@H]2CC=CCCCC(=O)O1", "GI50": 1.7, "TGI": "4.22 µM"}, {"smiles": "Cc1nnc(-c2ccc(C)c(-c3ccc(C(=O)Nc4cccc(C#N)c4)cc3)c2)o1", "GI50": 8.65, "TGI": "> 25 µM"}, {"smiles": "NC(CSC(c1ccccc1)(c1ccccc1)c1ccccc1)C(=O)NCC(=O)O", "note": "(centres undefined)", "GI50": 2.88, "TGI": "17.7 µM"}, {"smiles": "C=C(C)[C@@H]1CC[C@]2(COCCCN)CC[C@]3(C)[C@H](CC[C@@H]4[C@@](C)(CCCNCCCN)[C@H](C(=C)C)CC[C@]43C)[C@@H]12", "GI50": 1.87, "TGI": "3.75 µM"}, {"smiles": "O=C(O)c1ccc(CN2CCC(CN[C@@H]3C[C@H]3c3ccccc3)CC2)cc1", "GI50": "> 100", "TGI": "> 100 µM"}, {"smiles": "C=C1c2c(C)nn(-c3ccc(C#CCOC4OC(CO)C(O)C(O)C4O)cc3)c2N(C)C23C[C@H]1C1(C)c4c(C)nn(-c5ccc(C#CCOC6OC(CO)C(O)C(O)C6O)cc5)c4N(C)C(C)(C[C@H]12)C3", "note": "(some centres undefined)", "GI50": 1.34, "TGI": "2.73 µM"}, {"smiles": "COc1cc(C2c3cc4c(cc3OC(C)(N3CCCC3)C2C)OCO4)cc(OC)c1OC", "note": "(centres undefined)", "GI50": 0.419, "TGI": "31.2 µM"}, {"smiles": "O=C1C=CC(=O)C2C1C1(Cl)C(Cl)=C(Cl)C2(Cl)C1(Cl)Cl", "note": "(centres undefined)", "GI50": 3.29, "TGI": "11.3 µM"}, {"smiles": "CCOc1cc(C(C)(C)C)ccc1C1=N[C@H](c2ccc(Cl)cc2)[C@H](c2ccc(Cl)cc2)N1C(=O)N1CCN(CC#Cc2cccc3c2CN([C@@H]2CCC(=O)NC2=O)C3=O)CC1", "GI50": 0.0321, "TGI": "> 100 µM"}, {"smiles": "CS(=O)(=O)CCNCc1coc(-c2ccc3ncnc(Nc4ccc(OCc5ccccc5)cc4)c3c2)c1", "GI50": 0.543, "TGI": "3.8 µM"}, {"smiles": "O=C1NC(=S)S/C1=C/c1ccc2c(c1)OCO2", "GI50": "> 100", "TGI": "> 100 µM"}, {"smiles": "CCN(CC)CCNC(Cc1ccccc1)c1ccc(OCc2ccccc2)cc1", "note": "(centres undefined)", "GI50": 4.24, "TGI": "18.3 µM"}]}]}
